Columns and labels:
[1] = tested on: ECHCG; experiment: Herbicidal pre-emergence action - Part I; format: in vivo, Echinochloa crus-galli; settings: visual grading after ca. 3 weeks vs untreated controls
Source text: (§1) Seeds of mono- and dicotyledonous weed plants were sown in plastic pots (double sowings with one species of mono- and one species of dicotyledonous weed plants per pot), in sandy loam, and covered with soil. The compounds according to the invention, formulated in the form of wettable powders (WP) or as emulsifiable concentrates (EC), were applied to the surface of the covering soil as aqueous suspension or emulsion, with the addition of 0.5% of an additive, at an application rate of 600 1 of water per hectare (converted). Following treatment, the pots were placed in a greenhouse and kept under optimum growth conditions for the test plants. The visual grading of the damage to the test plants was carried out after ca. 3 weeks in comparison to untreated controls (herbicidaleffectinpercent(%):100%effect=plantshavediedoff,0%effect=ascontrolplants). [formula]
(§2) Tables A1 to A12, below, show the effects of selected compounds of the general formula (I) according to table 1 on various harmful plants and an application rate corresponding to 1280 g/ha or below obtained by the experimental procedure mentioned above. Table A1: pre-emergence activity at 1280g/ha against ABUTH in %

[2] = tested on: LOLRI; experiment: Herbicidal pre-emergence action - Part I; format: in vivo, Lolium rigidum; settings: 1280 g/ha, visual grading after ca. 3 weeks vs untreated controls
Source text: as §1, §2

[3] = tested on: MATIN; experiment: Herbicidal pre-emergence action - Part I; format: in vivo, Matricaria inodora; settings: 1280 g/ha, visual grading after ca. 3 weeks vs untreated controls
Source text: as §1, §2

[4] = tested on: SETVI; experiment: Herbicidal pre-emergence action - Part I; format: in vivo, Setaria viridis; settings: visual grading after ca. 3 weeks vs untreated controls
Source text: as §1, §2

[5] = tested on: STEME; experiment: Herbicidal pre-emergence action - Part I; format: in vivo, Stellaria media; settings: visual grading after ca. 3 weeks vs untreated controls
Source text: as §1, §2

[6] = tested on: POAAN; experiment: Herbicidal pre-emergence action - Part I; format: in vivo, Poa annua; settings: visual grading after ca. 3 weeks vs untreated controls
Source text: as §1, §2

[7] = tested on: AMARE; experiment: Herbicidal pre-emergence action - Part I; format: in vivo, Amaranthus retroflexus; settings: visual grading after ca. 3 weeks vs untreated controls
Source text: as §1, §2

[8] = tested on: KCHSC; experiment: Herbicidal pre-emergence action - Part I; format: in vivo, Kochia scoparia; settings: Table A10a, 1280 g/ha, visual grading after ca. 3 weeks vs untreated controls
Source text: as §1, §2

[9] = tested on: DIGSA; experiment: Herbicidal pre-emergence action - Part I; format: in vivo, Digitaria sanguinalis; settings: visual grading after ca. 3 weeks vs untreated controls
Source text: as §1, §2

[10] = tested on: ECHCG; experiment: Herbicidal post-emergence action - Part I; format: in vivo, Echinochloa crus-galli; settings: one-leaf stage, rated visually after about 3 weeks vs untreated controls
Experimental: (§3) Seeds of mono- and dicotyledonous weed plants were placed in plastic pots in sandy loam soil (doubly sown with in each case one species of mono- or dicotyledonous weed plants per pot), covered with soil and cultivated in a greenhouse under controlled growth conditions. 2 to 3 weeks after sowing, the test plants were treated at the one-leaf stage. The compounds of the invention, formulated in the form of wettable powders (WP) or as emulsion concentrates (EC), were applied onto the green parts of the plants as aqueous suspension or emulsion with addition of 0.5% additive at a water application rate of 600 liters per hectare (converted). After the test plants had been kept in the greenhouse under optimum growth conditions for about 3 weeks, the activity of the preparations was rated visually in comparison to untreated controls. For example, 100% activity = the plants have died, 0% activity = like control plants. Tables B1 to B12, below, show the effects of selected compounds of the general formula (I) according to table 1 on various harmful plants and an application rate corresponding to 1280 g/ha or below obtained by the experimental procedure mentioned above. Table B1a: post-emergence activity at 1280g/ha against ABUTH in %

[11] = tested on: SETVI; experiment: Herbicidal post-emergence action - Part I; format: in vivo, Setaria viridis; settings: 1280 g/ha, one-leaf stage, rated visually after about 3 weeks vs untreated controls
Experimental: as §3

[12] = tested on: POAAN; experiment: Herbicidal post-emergence action - Part I; format: in vivo, Poa annua; settings: 1280 g/ha, one-leaf stage, rated visually after about 3 weeks vs untreated controls
Experimental: as §3

[13] = tested on: AMARE; experiment: Herbicidal post-emergence action - Part I; format: in vivo, Amaranthus retroflexus; settings: 1280 g/ha, one-leaf stage, rated visually after about 3 weeks vs untreated controls
Experimental: as §3

[14] = tested on: KCHSC; experiment: Herbicidal post-emergence action - Part I; format: in vivo, Kochia scoparia; settings: 1280 g/ha, one-leaf stage, rated visually after about 3 weeks vs untreated controls
Experimental: as §3

[15] = tested on: VERPE; experiment: Herbicidal post-emergence action - Part I; format: in vivo, Veronica persica; settings: 1280 g/ha, one-leaf stage, rated visually after about 3 weeks vs untreated controls
Experimental: as §3

[16] = tested on: STEME; experiment: Herbicidal post-emergence action - Part I; format: in vivo, Stellaria media; settings: one-leaf stage, rated visually after about 3 weeks vs untreated controls
Experimental: as §3

[17] = tested on: ABUTH; experiment: Herbicidal post-emergence action - Part II; format: in vivo, Abutilon theophrasti
Source text: (§4) Seeds of mono- and dicotyledonous weed plants and crop plants were sown, in plastic or organic planting pots, in sandy loam, covered with soil and grown in a greenhouse under controlled growth conditions. 2 to 3 weeks after sowing, the test plants were sprayed in the single-leaf stage. The compounds according to the invention, formulated in form of wettable powders (WP) or as emulsifiable concentrates (EC), were sprayed onto the green plant parts as aqueous suspension or emulsion, with the addition of 0.5% of an additive, at an application rate of 600 1 of water/ha (converted). The test plants were placed in the greenhouse for ca. 3 weeks under optimum growth conditions, and then the effect of the preparations was assessed visually in comparison with untreated controls (herbicidal effect in percent (%): 100% effect = plants have died off, 0% effect = as control plants). Tables E1 to E10 below show the effects of selected compounds of the general formula (I) according to table 1 on various harmful plants and an application rate corresponding to 320 g/ha or below obtained by the experimental procedure mentioned above. Table E1a: post-emergence activity at 5g/ha against ABUTH in %

[18] = tested on: AMARE; experiment: Herbicidal post-emergence action - Part II; format: in vivo, Amaranthus retroflexus
Source text: as §4

[19] = tested on: MATIN; experiment: Herbicidal post-emergence action - Part II; format: in vivo, Matricaria inodora; settings: 20 g/ha; Table E4b
Source text: as §4

[20] = tested on: PHBPU; experiment: Herbicidal post-emergence action - Part II; format: in vivo, Pharbitis purpurea
Source text: as §4

[21] = tested on: POLCO; experiment: Herbicidal post-emergence action - Part II; format: in vivo, Polygonum convolvulus; settings: 20 g/ha; Table E6
Source text: as §4

[22] = tested on: VERPE; experiment: Herbicidal post-emergence action - Part II; format: in vivo, Veronica persica; settings: 20 g/ha; Table E8b
Source text: as §4

[23] = tested on: VIOTR; experiment: Herbicidal post-emergence action - Part II; format: in vivo, Viola tricolor; settings: 20 g/ha; Table E9b
Source text: as §4

[24] = tested on: ZEAMX; experiment: Post-emergence effects on crop plants; format: in vivo, Zea mays; settings: crop plant
Source text: as §4, with “F1” for “E1”, “F5” for “E10”, “crop” for “harmful”, “[…]:” for “E1a:”, “ZEAMX” for “ABUTH”

[25] = tested on: TRZAS; experiment: Post-emergence effects on crop plants; format: in vivo, Triticum aestivum; settings: crop plant
Source text: as §4, with “F1” for “E1”, “F5” for “E10”, “crop” for “harmful”, “[…]:” for “E1a:”, “ZEAMX” for “ABUTH”

[26] = tested on: SETVI; experiment: Herbicidal post-emergence action - Part II; format: in vivo, Setaria viridis; settings: 20 g/ha; Table E7b
Source text: as §4

Row | SMILES | pre-emergence activity at 1280g/ha against ECHCG in % [1] [%] | pre-emergence activity at 1280g/ha against LOLRI in % [2] [%] | pre-emergence activity at 1280g/ha against MATIN in % [3] [%] | pre-emergence activity at 1280g/ha and against SETVI in % [4] [%] | pre-emergence activity at 320g/ha against STEME in % [5] [%] | pre-emergence activity at 1280g/ha against STEME in % [5] [%] | pre-emergence activity at 320g/ha and against POAAN in % [6] [%] | pre-emergence activity at 1280g/ha and against POAAN in % [6] [%] | pre-emergence activity at 1280g/ha against AMARE in % [7] [%] | pre-emergence activity at 1280g/ha against KCHSC in % [8] [%] | pre-emergence activity at 1280g/ha against DIGSA in % [9] [%] | post-emergence activity at 1280g/ha against ECHCG in % [10] [%] | post-emergence activity at 1280g/ha against POAAN in % [12] [%] | post-emergence activity at 1280g/ha against AMARE in % [13] [%] | post-emergence activity at 1280g/ha against KCHSC in % [14] [%] | post-emergence activity at 1280g/ha against VERPE in % [15] [%] | post-emergence activity against ABUTH ([17]; 20 g/ha, Table E1b) [%] | post-emergence activity against AMARE ([18]; 5 g/ha, Table E2a) [%] | post-emergence activity against AMARE ([18]; 20 g/ha, Table E2b) [%] | post-emergence activity against MATIN [19] [%] | also measured
1 | Cc1ccsc1C1=NOC2(CCCN(Cc3cccc(F)c3F)C2=O)C1 (racemic) [Compound I-3, 7-(2,3-Difluorobenzyl)-3-(3-methyl-2-thienyl)-1-oxa-2,7-diazaspiro[4.5]-dec-2-en-6-one] | 100 | 100 | 90 | 100 | 90 | 90 | 100 | 100 | 90 | 90 | 100 | 90 | 90 | 90 | 90 | 90 | – | – | – | – | pre-emergence activity at 320g/ha against ECHCG in % ([1]; 320 g/ha): 100%; pre-emergence activity at 320g/ha and against SETVI in % ([4]; 320 g/ha): 100%; pre-emergence activity at 320g/ha against DIGSA in % ([9]; 320 g/ha): 90%; post-emergence activity at 320g/ha against ECHCG in % ([10]; 320 g/ha): 90%; post-emergence activity at 1280g/ha against SETVI in % [11]: 90%
2 | Cc1ccccc1CN1CCCC2(CC(c3sccc3C)=NO2)C1=O (racemic) [Compound I-4, 7-(2-Methylbenzyl)-3-(3-methyl-2-thienyl)-1-oxa-2,7-diazaspiro[4.5]dec-2-en-6-one] | – | – | – | 90 | – | – | 100 | 100 | – | – | – | 90 | 90 | 90 | – | 90 | – | – | – | – | –
3 | Cc1ccsc1C1=NOC2(CCN(Cc3ccccc3F)C2=O)C1 (racemic) [Compound I-17, 7-(2-Fluorobenzyl)-3-(3-methyl-2-thienyl)-1-oxa-2,7-diazaspiro[4.4]non-2-en-6-one] | 90 | 100 | 90 | 100 | 90 | 100 | – | 100 | 90 | – | – | – | – | – | 90 | – | – | – | – | – | pre-emergence activity at 80g/ha against STEME in % ([5]; 80 g/ha): 90%
4 | O=C1N(Cc2c(F)cccc2F)CCC12CC(c1ccccc1F)=NO2 (racemic) [Compound I-27, 7-(2,6-Difluorobenzyl)-3-(2-fluorophenyl)-1-oxa-2,7-diazaspiro[4.4]non-2-en-6-one] | 100 | – | 90 | 90 | 90 | 90 | 100 | 100 | 90 | 90 | 90 | – | – | 90 | – | – | – | – | – | – | pre-emergence activity at 320g/ha against AMARE in % ([7]; 320 g/ha): 90%; post-emergence activity at 320g/ha against STEME in % ([16]; 320 g/ha): 90%; post-emergence activity at 1280g/ha against STEME in % ([16]; 1280 g/ha): 90%
5 | COC(=O)CN1CCCC2(CC(c3cc(-n4c(=O)cc(C(F)(F)F)n(C)c4=O)c(F)cc3Cl)=NO2)C1=O (racemic) [Compound I-57] | – | – | – | – | – | – | – | – | – | – | – | – | – | – | – | – | 100 | 100 | 100 | 100 | post-emergence activity against PHBPU ([20]; 5 g/ha, Table E5a): 100%; post-emergence activity against PHBPU ([20]; 20 g/ha, Table E5b): 100%; post-emergence activity against POLCO [21]: 100%; post-emergence activity against VERPE [22]: 100%; post-emergence activity against VIOTR [23]: 100%; post-emergence activity against ZEAMX ([24]; 5 g/ha, Table F1a): 20%; post-emergence activity against ZEAMX ([24]; 20 g/ha, Table F1b): 20%; post-emergence activity against TRZAS ([25]; 5 g/ha, Table F2a): 20%; post-emergence activity against TRZAS ([25]; 20 g/ha, Table F2b): 20%
6 | Cn1c(C(F)(F)F)cc(=O)n(-c2cc(C3=NOC4(CCCNC4=O)C3)c(Cl)cc2F)c1=O (racemic) [Compound I-67] | – | – | – | – | – | – | – | – | – | – | – | – | – | – | – | – | 100 | 100 | 100 | 100 | post-emergence activity against ABUTH ([17]; 5 g/ha, Table E1a): 80%; post-emergence activity against PHBPU ([20]; 5 g/ha, Table E5a): 100%; post-emergence activity against PHBPU ([20]; 20 g/ha, Table E5b): 100%; post-emergence activity against SETVI [26]: 80%; post-emergence activity against VERPE [22]: 80%; post-emergence activity against VIOTR [23]: 100%; post-emergence activity against ZEAMX ([24]; 5 g/ha, Table F1a): 20%; post-emergence activity against TRZAS ([25]; 5 g/ha, Table F2a): 20%
